Patent US20160214958A1, “COMPOUNDS AND USE FOR TREATING CANCER” (GLIONOVA AB, priority 2013, published 2016)

Each molecule was assayed on glioma stem cell line U3013 (assay: In vitro cancer cell and CSC viability assay (ATP quantification, CellTiterGlo)). Details: Homo sapiens; U3013, 24 hours exposure; read-out: In vitro efficacy (viability) EC50.
Format: cell-based, human
Protocol: The ability of Examples S1-S23 to selectively induce cytotoxicity in glioma/glioblastoma cancer cells or glioma/glioblastoma cancer stem cells was determined by quantification of ATP production in glioma stem cell line U3013 in the presence of using CellTiterGlo reagent (Promega). Cells were exposed to compound in serial dilution in the range 1 nM to 50 µM for 24 hours and viability assessed with respect to negative control (dmso, no cell death) and positive control (staurosporine, full cell death). […] The EC50 of S10 remained largely similar at 2, 3 and 4 days of incubation. […] The individual isomers (S21-S23) of racemic S10 were evaluated in order to determine the enantiospecific pharmacology of the individual isomers.
Negative (100% DMSO) and positive (10 mM S10 in 100% DMSO) controls were placed in rows 1-4 and 5-8, respectively, of column 12. The wells were diluted with 190 μl of the corresponding growth media and 5 μl of each well of compound solution transferred to quadruplicate wells of a sterile 384-well black clear bottom plate (BD Falcon) containing GSC at 70% confluency in 45 μl growth media. The plate was incubated for 24 hours, after which the plate was removed from the incubator and each well imaged in bright-field using an Operetta Imaging system (PerkinElmer) at 37° C. and 5% CO2 to determine vacuole accumulation at each concentration. The plate was then allowed to cool to room temperature and each well treated with 25 μl freshly CellTiterGlo (Promega) reagent. The plate was shaken for 15 minutes and luminescence measured using a Victor3 (Perkin Elmer) microtiterplate reader. Total luminescence was normalized relative to control and curve fitting performed using GraphPad Prism (v6.02) software.

| SMILES | EC50 |
| --- | --- |
| O[C@H](c1cc(-c2ccc(C(F)(F)F)nc2)nc2ccccc12)[C@@H]1CCCCN1 (racemic) [Compound S27, mixture of (R)-((S)-piperidin-2-yl)(2-(6-(trifluoromethyl)pyridin-3-yl)quinolin-4-yl)methanol and (S)-((R)-piperidin-2-yl)(2-(6-(trifluoromethyl)pyridin-3-yl)quinolin-4-yl)methanol] | 38 µM |
| OC(c1cc(-c2ccccc2)nc2c1ccc1ccccc12)C1CCCCN1 (stereo not shown) [Compound S1, (2-phenylbenzo[h]quinolin-4-yl)(piperidin-2-yl)methanol] | 0.39 µM |
| OC(c1cc([C@]23CC4CC[C@H](C[C@H]4C2)C3)nc2c(Cl)cc(Cl)cc12)C1CCCCN1 (stereo partly drawn) [Compound S2, (6,8-dichloro-2-((2R,3aS,5R)-octahydro-1H-2,5-methanoinden-2-yl)quinolin-4-yl)(piperidin-2-yl)methanol] | 0.41 µM |
| Cc1ccc2nc(Nc3ccc(Cl)cc3)cc(C(O)C3CCCCN3)c2c1 (stereo not shown) [Compound S3, (2-((4-chlorophenyl)amino)-6-methylquinolin-4-yl)(piperidin-2-yl)methanol] | 0.73 µM |
| OC(c1cc(-c2ccc(Cl)cc2)nc2c(Cl)cccc12)C1CCCCN1 (stereo not shown) [Compound S4, (8-chloro-2-(4-chlorophenyl)quinolin-4-yl)(piperidin-2-yl)methanol] | 1.03 µM |
| OC(c1cc(-c2ccccc2)nc2c(Cl)cc(Cl)cc12)C1CCCCN1 (stereo not shown) [Compound S5, (6,8-dichloro-2-phenylquinolin-4-yl)(piperidin-2-yl)methanol] | 1.1 µM |
| OC(c1cc(-c2cccc(Cl)c2)nc2ccccc12)C1CCCCN1 (stereo not shown) [Compound S6, (2-(3-chlorophenyl)quinolin-4-yl)(piperidin-2-yl)methanol] | 1.25 µM |
| OC(c1cc(-c2ccc(Cl)c(Cl)c2)nc2ccccc12)C1CCCCN1 (stereo not shown) [Compound S7, (2-(3,4-dichlorophenyl)quinolin-4-yl)(piperidin-2-yl)methanol] | 1.59 µM |
| CN(Cc1ccc(-c2cc(C(O)C3CCCCN3)c3ccccc3n2)cc1)C(=O)OC(C)(C)C (stereo not shown) [Compound S9, tert-butyl 4-(4-(hydroxy(piperidin-2-yl)methyl)quinolin-2-yl)benzyl(methyl)carbamate] | 2.25 µM |
| OC(c1cc(-c2ccccc2)nc2cc(Cl)ccc12)C1CCCCN1 (stereo not shown) [Compound S11, (7-chloro-2-phenylquinolin-4-yl)(piperidin-2-yl)methanol] | 2.69 µM |
| OC(c1cc(-c2ccccc2)nc2ccc(Cl)cc12)C1CCCCN1 (stereo not shown) [Compound S13, (6-chloro-2-phenylquinolin-4-yl)(piperidin-2-yl)methanol] | 3.62 µM |
| COC(c1cc(-c2ccc(Cl)cc2)nc2ccccc12)C1CCCCN1 (stereo not shown) [Compound S14, 2-(4-chlorophenyl)-4-(methoxy(piperidin-2-yl)methyl)quinoline] | 5.62 µM |
| OC(c1cc(-c2ccc(Cl)cc2)nc2ccccc12)C1CCCN1 (stereo not shown) [Compound S16, (2-(4-chlorophenyl)quinolin-4-yl)(pyrrolidin-2-yl)methanol] | 8.72 µM |
| OC(c1cc(C2CCCCC2)nc2ccccc12)C1CCCCN1 (stereo not shown) [Compound S18, (2-cyclohexylquinolin-4-yl)(piperidin-2-yl)methanol] | 12.7 µM |
| CN1CCCCC1C(O)c1cc(-c2ccc(Cl)cc2)nc2ccccc12 (stereo not shown) [Compound S19, (2-(4-chlorophenyl)quinolin-4-yl)(1-methylpiperidin-2-yl)methanol] | 19.3 µM |
| O[C@H](c1cc(-c2ccc(Cl)cc2)nc2ccccc12)[C@H]1CCCCN1 [Compound S23, (R)-(2-(4-chlorophenyl)quinolin-4-yl)((R)-piperidin-2-yl)methanol] | 9.95 µM |

Second part, the molecule after the results:

| EC50 | SMILES |
| --- | --- |
| 32.1 µM | Cc1ccc(-c2cc([C@@H](O)[C@@H]3CCCCN3)c3ccccc3n2)cc1C#N (racemic) [Compound S24, mixture of 5-(4-((R)-hydroxy((S)-piperidin-2-yl)methyl)quinolin-2-yl)-2-methylbenzonitrile and 5-(4-((S)-hydroxy((R)-piperidin-2-yl)methyl)quinolin-2-yl)-2-methylbenzonitrile] |
| 35.4 µM | CCCN(CCC)C(=O)c1ccc(-c2cc([C@@H](O)[C@@H]3CCCCN3)c3ccccc3n2)cc1 (racemic) [Compound S25, mixture of 4-(4-((R)-hydroxy((S)-piperidin-2-yl)methyl)quinolin-2-yl)-N,N-dipropylbenzamide and 4-(4-((S)-hydroxy((R)-piperidin-2-yl)methyl)quinolin-2-yl)-N,N-dipropylbenzamide] |
| 13.5 µM | O[C@H](c1cc(-c2ccc(C(F)(F)F)cc2)nc2ccccc12)[C@@H]1CCCCN1 (racemic) [Compound S26, mixture of (R)-((S)-piperidin-2-yl)(2-(4-(trifluoromethyl)phenyl)quinolin-4-yl)methanol and (S)-((R)-piperidin-2-yl)(2-(4-(trifluoromethyl)phenyl)quinolin-4-yl)methanol] |
| 14.6 µM | O[C@H](c1cc(-c2ccc(C(F)(F)F)cc2)nc2ccccc12)[C@H]1CCCCN1 (racemic) [Compound S28, mixture of (R)-((R)-piperidin-2-yl)(2-(4-(trifluoromethyl)phenyl)quinolin-4-yl)methanol and (S)-((S)-piperidin-2-yl)(2-(4-(trifluoromethyl)phenyl)quinolin-4-yl)methanol] |
| 1.69 µM | C#Cc1ccc(-c2cc(C(O)C3CCCCN3)c3ccccc3n2)cc1 (stereo not shown) [Compound S8, (2-(4-ethynylphenyl)quinolin-4-yl)(piperidin-2-yl)methanol] |
| 3.22 µM | OC(c1cc(-c2ccc(Cl)cc2Cl)nc2ccccc12)C1CCCCN1 (stereo not shown) [Compound S12, (2-(2,4-dichlorophenyl)quinolin-4-yl)(piperidin-2-yl)methanol] |
| 7.59 µM | COc1ccc(-c2cc(C(O)C3CCCCN3)c3ccccc3n2)cc1 (stereo not shown) [Compound S15, (2-(4-methoxyphenyl)quinolin-4-yl)(piperidin-2-yl)methanol] |
| 9.6 µM | OC(c1cc(C(F)(F)F)nc2c(Cl)cc(Cl)cc12)C1CCCCN1 (stereo not shown) [Compound S17, (6,8-dichloro-2-(trifluoromethyl)quinolin-4-yl)(piperidin-2-yl)methanol] |
| 10.5 µM | O[C@@H](c1cc(-c2ccc(Cl)cc2)nc2ccccc12)[C@@H]1CCCCN1 [Compound S22, (S)-(2-(4-chlorophenyl)quinolin-4-yl)((S)-piperidin-2-yl)methanol] |

Same assay, conditions: U3013, 24 hours exposure

| In vitro efficacy (viability) EC50 | SMILES |
| --- | --- |
| No activity | O[C@H](c1cc(-c2ccc(C(F)(F)F)nc2)nc2ccccc12)[C@H]1CCCCN1 (mixture of isomers) [Compound S29, mixture of (R)-((R)-piperidin-2-yl)(2-(6-(trifluoromethyl)pyridin-3-yl)quinolin-4-yl)methanol and (S)-((S)-piperidin-2-yl)(2-(6-(trifluoromethyl)pyridin-3-yl)quinolin-4-yl)methanol] |

Same assay, conditions: individual isomers of racemic S10

| SMILES | potency with respect to S10 (viability) |
| --- | --- |
| O[C@@H](c1cc(-c2ccc(Cl)cc2)nc2ccccc12)[C@@H]1CCCCN1 [Compound S22, (S)-(2-(4-chlorophenyl)quinolin-4-yl)((S)-piperidin-2-yl)methanol] | significantly attenuated activity |
| O[C@H](c1cc(-c2ccc(Cl)cc2)nc2ccccc12)[C@H]1CCCCN1 [Compound S23, (R)-(2-(4-chlorophenyl)quinolin-4-yl)((R)-piperidin-2-yl)methanol] | significantly attenuated activity |
